This note sets out measurements from patent US5198445A, “Composition and use of substituted 3-thio-2-propynenitriles as industrial antimicrobials” (The Dow Chemical Company, priority 1992, dated 1993).

Structures are written as SMILES. Converted amounts (≈) assume the structure as drawn. Where two headings read alike, the source gives them in different places.

The nature of data set [1]: Antimicrobial activity of decomposition product. The format is cell-based. The source says:
It has also been discovered that the compounds of the present invention may degrade at a pH of 7 or above over an extended time period to compounds which are less antimicrobially active than the original compounds of the present invention.

The test system of another data set is Fusarium oxysporum (Fo). Nature of the data set: MIC in malt yeast agar, Fusarium oxysporum. The format is cell-based, Fusarium oxysporum ATCC 48112. The note with it: read-out: Minimum Inhibitory Concentration, Fo. The protocol:
(§1) The minimum inhibitory concentration (MIC) for the compounds listed in Table I is determined for 9 bacteria, using nutrient agar, and 7 yeast and fungi, using malt yeast agar. A one percent solution of the test compound is prepared in a mixture of acetone and water. Nutrient agar is prepared at pH 6.8, representing a neutral medium, and at pH 8.2, representing an alkaline medium. The nutrient agars are prepared by adding 23 g of nutrient agar to one-liter of deionized water. In addition, the alkaline medium is prepared by adjusting a 0.04M solution of N-[tris-(hydroxymethyl)methyl]-glycine buffered deionized water with concentrated sodium hydroxide to a pH of […]. Malt yeast agar is prepared by adding 3 g yeast extract and 45 g malt agar per liter of deionized water. The specific agar is dispensed in 30 ml aliquots into 25×200 mm test tubes, capped and autoclaved for 15 minutes at 115° C. The test tubes containing the agar are cooled in a water bath until the temperature of the agar is 48° C. Then, an appropriate amount of the one percent solution of the test compound is added (except in the controls where no compound is added) to the respective test tubes so that the final concentrations are 500, 250, 100, 50, 25, 10, 5, 2.5, 1.0 and zero parts per million of the test compound in the agar, thus having a known concentration of test compound dispersed therein. The contents of the test tubes are then transferred to respective petri plates. After drying for 24 hours, the petri plates containing nutrient agar are inoculated with bacteria and those containing malt yeast agar are inoculated with yeast and fungi.
(§2) The inoculation with the yeast and fungi is accomplished as follows. Cultures of yeast and fungi are incubated for seven days on malt yeast agar at 30° C. These cultures are used to prepare suspensions by the following procedure. A suspension of each organism is prepared by adding 10 ml of sterile saline and 10 microliters of octylphenoxy polyethoxy ethanol (TRITON® X-100, a trademark of Rohm & Haas Company) to the agar slant of yeast or fungi. The sterile saline/octylphenoxy polyethoxy ethanol solution is then agitated with a sterile swab to suspend the microorganism grown on the slant. Each resulting suspension is diluted into sterile saline (1 part suspension: 9 parts sterile saline). Aliquots of these dilutions are placed in individual wells of Steer's Replicator and petri plates inoculated as previously described. The petri plates are incubated at 30° C. and read after 48 hours for yeast and 72 hours for fungi.
(§3) Table II lists the bacteria, yeast and fungi used in the MIC test described above along with their respective American Type Culture Collection (ATCC) identification numbers.
(§4) The following MIC and MEC antimicrobial tests, whose results are shown in Tables XIII-XVII, are performed using the same methods as described hereinabove.

The subject of data set [2] is Enterobacter aerogenes (Ea). Nature of the data set: MIC in nutrient agar, Enterobacter aerogenes. The format is cell-based, Enterobacter aerogenes ATCC 13048. The note with it: Klebsiella aerogenes. As to the method: as §1
(§5) The inoculation with bacteria is accomplished by using the following procedure. Twenty-four hour-cultures of each of the bacteria are prepared by incubating the respective bacteria in tubes containing nutrient broth for 24 hours at 30° C. in a shaker. Dilutions of each of the 24 hour-cultures are made so that nine separate suspensions (one for each of the nine test bacteria) are made, each containing 10^8 colony forming units (CFU) per ml of suspension of a particular bacteria. Aliquots of 0.3 ml of each of the bacterial suspensions are used to fill the individual wells of Steer's Replicator. For each microbial suspension, 0.3 ml was used to fill three wells (i.e., three wells of 0.3 ml each) so that for the nine different bacteria, 27 wells are filled. The Steer's Replicator is then used to inoculate both the neutral and alkaline pH nutrient agar petri plates.
(§6) The inoculated petri plates are incubated at 30° C. for 48 hours and then read to determine if the test compound which is incorporated into the agar prevented growth of the respective bacteria.
as §3, §4

The subject of data set [3] is Saccharomyces cerevisiae (Sc). Put plainly: MIC in malt yeast agar, Saccharomyces cerevisiae. It is filed as cell-based, Saccharomyces cerevisiae ATCC 4105. Conditions: read-out: Minimum Inhibitory Concentration, Sc. The protocol: as §1, §2, §3, §4
Another data set relates to Bacteria Species. Nature of the data set: MIC test in bacteria species, comparison over the organisms of Table XIV. The format is cell-based, bacteria listed in Table II. Conditions: pH 8.2. As to the method: The minimum inhibitory concentration (MIC) for the compounds listed in Table I is determined for 9 bacteria, using nutrient agar, and 7 yeast and fungi, using malt yeast agar. A one percent solution of the test compound is prepared in a mixture of acetone and water. Nutrient agar is prepared at pH 6.8, representing a neutral medium, and at pH 8.2, representing an alkaline medium. The nutrient agars are prepared by adding 23 g of nutrient agar to one-liter of deionized water. In addition, the alkaline medium is prepared by adjusting a 0.04M solution of N-[tris-(hydroxymethyl)methyl]-glycine buffered deionized water with concentrated sodium hydroxide to a pH of […]. Malt yeast agar is prepared by adding 3 g yeast extract and 45 g malt agar per liter of deionized water. The specific agar is dispensed in 30 ml aliquots into 25×200 mm test tubes, capped and autoclaved for 15 minutes at 115° C. The test tubes containing the agar are cooled in a water bath until the temperature of the agar is 48° C. […]
The inoculated petri plates are incubated at 30° C. for 48 hours and then read to determine if the test compound which is incorporated into the agar prevented growth of the respective bacteria. […]

The test system of the next data set is Trichoderma viride (Tv). Put plainly: MIC in malt yeast agar, Trichoderma viride. The format is cell-based, Trichoderma viride ATCC 8678. Conditions: read-out: Minimum Inhibitory Concentration, Tv. As to the method:
as §1, §2, §3, §4

The subject of data set [4] is Aureobasidium pullulan (Ap). Nature of the data set: MIC in malt yeast agar, Aureobasidium pullulan. It is filed as cell-based, Aureobasidium pullulan ATCC 16622. The note with it: read-out: Minimum Inhibitory Concentration, Ap. As to the method: as §1, §2, §3, §4
Another data set has as its system Bacillus subtilis (Bs). Put plainly: MIC in nutrient agar, Bacillus subtilis. It is filed as cell-based, Bacillus subtilis ATCC 8473. The note with it: Bacillus subtilis. The protocol:
as §1, §5, §6, §3, §4

Another data set concerns Candida albicans (Ca). Put plainly: MIC in malt yeast agar, Candida albicans. It is filed as cell-based, Candida albicans ATCC 10231. The note with it: read-out: Minimum Inhibitory Concentration, Ca. The protocol: as §1, §2, §3, §4
Data set [5] has as its system Penicillium chrysogenum (Pc). Nature of the data set: MIC in malt yeast agar, Penicillium chrysogenum. It is filed as cell-based, Penicillium chrysogenum ATCC 9480. Conditions: read-out: Minimum Inhibitory Concentration, Pc. As to the method:
as §1, §2, §3, §4

The test system of another data set is Aspergillus niger (An). Nature of the data set: MIC in malt yeast agar, Aspergillus niger. Conditions: read-out: Minimum Inhibitory Concentration, An. It is filed as cell-based, Aspergillus niger ATCC 16404. The protocol:
as §1, §2, §3, §4

The subject of data set [6] is Salmonella choleraesuis (Sc). Nature of the data set: MIC in nutrient agar, Salmonella choleraesuis. The format is cell-based, Salmonella choleraesuis ATCC 10708. The note with it: Salmonella enterica, CHOLERAESUIS
The protocol:
as §1, §5, §6, §3, §4

Data set [7] deals with Pseudomonas aeruginosa (PRD-10). Put plainly: MIC in nutrient agar, Pseudomonas aeruginosa PRD-10. It is filed as cell-based, Pseudomonas aeruginosa ATCC 15442. Conditions: Pseudomonas aeruginosa. As to the method: as §1, §5, §6, §3, §4
In the next data set the test system is Proteus vulgaris (Pv). Nature of the data set: MIC in nutrient agar, Proteus vulgaris. It is filed as cell-based, Proteus vulgaris ATCC 881. The protocol: as §1, §5, §6, §3, §4
The next data set has as its system Escherichia coli (Ec). Nature of the data set: MIC in nutrient agar, Escherichia coli. It is filed as cell-based, Escherichia coli ATCC 11229. Conditions: Escherichia coli. The protocol:
as §1, §5, §6, §3, §4

Data set [8] has as its system Pseudomonas aeruginosa (Pa). Nature of the data set: MIC in nutrient agar, Pseudomonas aeruginosa. The format is cell-based, Pseudomonas aeruginosa ATCC 10145. The protocol:
as §1, §5, §6, §3, §4

The nature of data set [9]: Degradation of Z isomer to 3-methylthio-2-propynenitrile. The format is physicochemical. From the text:
It has also been discovered that the Z isomer of an appropriately-substituted 2-chloro-3-thio-2-propenenitrile precursor may degrade in situ to a like-substituted 3-thio-2-propynenitrile.

For data set [10], the system named is Klebsiella pneumoniae (Kp). Put plainly: MIC in nutrient agar, Klebsiella pneumoniae. The format is cell-based, Klebsiella pneumoniae ATCC 8308. As to the method: as §1, §5, §6, §3, §4
Data set [11] deals with Staphylococcus aureus (Sa). Nature of the data set: MIC in nutrient agar, Staphylococcus aureus. The format is cell-based, Staphylococcus aureus ATCC 6538. Conditions: Staphylococcus aureus. As to the method: as §1, §5, §6, §3, §4

With `CSC(=CC#N)SC` [3,3-bis(methylthio)propenenitrile], in data set [1], the “antimicrobial activity of decomposition product” value is “virtually inactive as an antimicrobial”.
For the compound `CS/C=C(\Cl)C#N` [Compound I, Z isomer of 2-chloro-3-(methylthio)-2-propenenitrile], the MIC with Fusarium oxysporum (Fo) stood at 100 µg/mL (≈ 748 µM); in data set [2] (pH 6.8, read-out: Minimum Inhibitory Concentration, Ea) it was 50 µg/mL (≈ 374 µM); in data set [2] (pH 8.2, read-out: Minimum Inhibitory Concentration, Ea), 10 µg/mL (≈ 74.8 µM); in data set [3], 100 µg/mL (≈ 748 µM); in the data set on Trichoderma viride (Tv), 50 µg/mL (≈ 374 µM); in data set [4], 50 µg/mL (≈ 374 µM). Moreover, the MIC in the data set on Bacillus subtilis (Bs) (pH 6.8, read-out: Minimum Inhibitory Concentration, Bs) stood at 50 µg/mL (≈ 374 µM); in the data set on Bacillus subtilis (Bs) (pH 8.2, read-out: Minimum Inhibitory Concentration, Bs) it was 10 µg/mL (≈ 74.8 µM); in the data set with Candida albicans (Ca) it was 100 µg/mL (≈ 748 µM); in data set [5] it was 50 µg/mL (≈ 374 µM); with Aspergillus niger (An) it was 50 µg/mL (≈ 374 µM); in [6] (pH 6.8, read-out: Minimum Inhibitory Concentration, Sc), 50 µg/mL (≈ 374 µM). The MIC in data set [6] (pH 8.2, read-out: Minimum Inhibitory Concentration, Sc) was 10 µg/mL (≈ 74.8 µM); in data set [7] (pH 6.8, read-out: Minimum Inhibitory Concentration, PRD), 50 µg/mL (≈ 374 µM); in data set [7] (pH 8.2, read-out: Minimum Inhibitory Concentration, PRD), 10 µg/mL (≈ 74.8 µM); in the data set with Proteus vulgaris (Pv) (pH 6.8, read-out: Minimum Inhibitory Concentration, Pv), 50 µg/mL (≈ 374 µM); in the data set with Proteus vulgaris (Pv) (pH 8.2, read-out: Minimum Inhibitory Concentration, Pv), 5 µg/mL (≈ 37.4 µM); with Escherichia coli (Ec) (pH 6.8, read-out: Minimum Inhibitory Concentration, Ec), 50 µg/mL (≈ 374 µM). In addition, the MIC came out at 10 µg/mL (≈ 74.8 µM) with Escherichia coli (Ec) (pH 8.2, read-out: Minimum Inhibitory Concentration, Ec); 50 µg/mL (≈ 374 µM) in [8] (pH 6.8, read-out: Minimum Inhibitory Concentration, Pa); 10 µg/mL (≈ 74.8 µM) in data set [8] (pH 8.2, read-out: Minimum Inhibitory Concentration, Pa); 50 µg/mL (≈ 374 µM) in [10] (pH 6.8, read-out: Minimum Inhibitory Concentration, Kp); 10 µg/mL (≈ 74.8 µM) in data set [10] (pH 8.2, read-out: Minimum Inhibitory Concentration, Kp); 50 µg/mL (≈ 374 µM) in data set [11] (pH 6.8, read-out: Minimum Inhibitory Concentration, Sa). For the same compound, the MIC in data set [11] (pH 8.2, read-out: Minimum Inhibitory Concentration, Sa) is 10 µg/mL (≈ 74.8 µM). Further, the “antimicrobial activity compared with 3-methylthio-2-propynenitrile (Compound A)” value in the data set with Bacteria Species is “essentially equivalent”. The “antimicrobial activity relative to the E isomer (Compound H)” value in the data set on Bacteria Species is recorded as 25-50 times greater. Moreover, the “half-life for the degradation of the Z isomer to 3-methylthio-2-propynenitrile” value in data set [9] (pH 7) and in data set [9] (pH 9) was “approximately two” in each case.
